Tests used:
[1] = target: T1, human CCK-A receptor (Homo sapiens, UniProt P32238); experiment: Inhibition of binding against CCK-A receptor (125I-CCK8, CHO cells); conditions: for receptor selectivity (IC50 ratio of CCK-A/gastrin): factor; for IC50: [125I]CCK8 25 pM, CHO cells expressing human CCK-A receptor, 37° C.
T1 construct: expressed in transfected cells; host or cells: CHO cells (Chinese hamster ovary)
T1 sequence (P32238 1-428): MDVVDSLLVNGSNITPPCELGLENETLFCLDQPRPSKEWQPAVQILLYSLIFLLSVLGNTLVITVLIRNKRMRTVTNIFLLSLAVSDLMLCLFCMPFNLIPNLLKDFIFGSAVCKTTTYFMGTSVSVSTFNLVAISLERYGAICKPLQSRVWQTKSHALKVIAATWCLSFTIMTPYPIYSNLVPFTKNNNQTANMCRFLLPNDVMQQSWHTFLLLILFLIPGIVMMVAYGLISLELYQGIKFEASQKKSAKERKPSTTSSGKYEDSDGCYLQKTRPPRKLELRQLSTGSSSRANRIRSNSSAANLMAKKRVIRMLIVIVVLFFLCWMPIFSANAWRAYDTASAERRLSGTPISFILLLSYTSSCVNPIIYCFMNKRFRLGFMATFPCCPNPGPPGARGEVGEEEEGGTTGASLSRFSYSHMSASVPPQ
Method: (§1) Separation of human CCK-B/gastrin receptor cDNA clone, separation of human CCK-A receptor cDNA clone, and expression of respective cloned receptors in heterologous cells.
(§2) cDNA of human CCK-B/gastrin receptor cDNA (Pisegna et al.: Biochem. Biophys. Res. Commun., 189, 296-303, 1992) and human CCK-A receptor cDNA (Ulrich et al.: Biochem. Biophys. Res. Commun., 193, 204-211, 1993) have already been isolated. The cDNAs having the reported nucleotide sequences were prepared using routine genetic engineering techniques. The isolated human CCK-B/gastrin receptor cDNA or human CCK-A receptor cDNA was integrated in an expression vector using routine genetic engineering techniques and transfected to CHO cells derived from the Chinese hamster ovary so as to induce expression of respective receptors.
Test method: The compounds of the present invention were evaluated by the receptor-binding assay using ^125 I-gastrin and human CCK-B/gastrin receptor expressed in CHO cells. CHO cells expressing a human CCK-A receptor were cultured using a DMEM/F-12 containing 10% fetal bovine serum at 37° C. in an aerobic phase of 5% CO2 and 95% air. Using a culture dish having a diameter of 16 mm (base area: 2 cm^2), the cells were cultured so as to obtain 5×10^5 cells. The cells were washed with a binding buffer (Earle's balanced salt solution containing 10 mM HEPES (pH 7.4), 0.1% bovine serum albumin, 2 mM glutamine, and 0.22% sodium hydrogen carbonate) twice, after which a binding buffer (0.5 ml) was added to the dish. To this binding buffer, a test compound (5 μl) dissolved in DMSO was added. The reaction was then allowed to start by adding 0.01 ml (final concentration: 25 pM) of [^125 I]CCK8. When a nonspecific binding amount was obtained, reaction was carried out in the presence of 1 μM of non-labelled CCK-8. Reaction was allowed to proceed at 37° C. in an aerobic phase of 5% CO2 and 95% air, after which the cells were washed with PBS. [^125 I]CCK8 which had not been bound to the cells was removed, and the cells were lysed by adding 1% Triton X-100 (250 μl) to the dish. Radioactivity of this solution was measured by a gamma counter. A specific binding amount was obtained by subtracting a nonspecific binding amount from a total binding amount. Using the thus-obtained specific binding amount, the percentage of the value obtained from a test substance addition group with respect to that of the DMSO addition group was calculated. The percentage was subjected to Hill conversion and then to a least squares method, obtaining a 50% inhibitory concentration (IC50).

[2] = target: T2, human CCK-B/gastrin receptor (Homo sapiens, UniProt P32239); experiment: Inhibition of binding against gastrin receptor (125I-gastrin, CHO cells); conditions: [125I]gastrin 25 pM, CHO cells expressing human CCK-B/gastrin receptor, 37° C.
T2 construct: expressed in transfected cells; host or cells: CHO cells (Chinese hamster ovary)
T2 sequence (P32239 1-447): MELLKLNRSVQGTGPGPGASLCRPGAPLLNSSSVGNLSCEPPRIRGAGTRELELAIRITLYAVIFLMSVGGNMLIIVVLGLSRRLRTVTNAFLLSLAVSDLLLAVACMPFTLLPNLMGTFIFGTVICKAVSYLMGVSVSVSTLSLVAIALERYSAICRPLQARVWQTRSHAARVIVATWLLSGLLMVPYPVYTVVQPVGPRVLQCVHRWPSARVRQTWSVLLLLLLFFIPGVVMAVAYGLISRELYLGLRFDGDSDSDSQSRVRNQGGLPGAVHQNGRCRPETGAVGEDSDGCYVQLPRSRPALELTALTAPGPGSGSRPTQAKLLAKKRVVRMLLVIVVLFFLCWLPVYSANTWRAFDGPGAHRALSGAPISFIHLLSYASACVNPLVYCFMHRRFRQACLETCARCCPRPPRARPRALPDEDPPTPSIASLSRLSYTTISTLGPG
Method: as §1, §2
The compounds of the present invention were evaluated by the receptor-binding assay using ^125 I-gastrin and human CCK-B/gastrin receptor expressed in CHO cells. CHO cells expressing the human CCK-B/gastrin receptor were cultured using a Dulbecco's modified Eagle minimum essential medium: nutrient mixture F-12 (hereinafter abbreviated as DMEM/F-12) containing 10% fetal bovine serum at 37° C. in an aerobic phase of 5% CO2 and 95% air. Using a culture dish having a diameter of 16 mm (base area: 2 cm^2), the cells were cultured so as to obtain 5×10^5 cells. The cells were washed with a binding buffer (Earle's balanced salt solution containing 10 mM 4-(2-hydroxyethyl)-1-piperazine ethanesulfonic acid (HEPES) (pH 7.4), 0.1% bovine serum albumin, 2 mM glutamine, and 0.22% sodium hydrogen carbonate) twice, after which a binding buffer (0.5 ml) was added to the dish. To this binding buffer, a test compound (5 μl) dissolved in dimethylsulfoxide (DMSO) was added. The reaction was then allowed to start by adding 0.01 ml (final concentration: 25 pM) of [^125 I]gastrin. When a nonspecific binding amount was obtained, reaction was carried out in the presence of 1 μM of non-labelled gastrin. Reaction was allowed to proceed at 37° C. in an aerobic phase of 5% CO2 and 95% air, after which the cells were washed with phosphate-buffered saline (PBS). [^125 I]gastrin which had not been bound to the cells was removed, and the cells were lysed by adding 1% Triton X-100 (250 μl) to the dish. Radioactivity of this solution was measured by a gamma counter. A specific binding amount was obtained by subtracting a nonspecific binding amount from a total binding amount. Using the thus-obtained specific binding amount, the percentage of the value obtained from a test substance addition group with respect to that of the DMSO addition group was calculated. The percentage was subjected to Hill conversion and then a least squares method, obtaining a 50% inhibitory concentration (IC50).

receptor selectivity (IC50 ratio of CCK-A/gastrin) [1]	IC50 [1] [nM]	IC50 [2] [nM]	Structure (SMILES)
238	1480	6.5	COc1cccc(N(CC(=O)N(C)c2ccccc2)C(=O)CNC(=O)Nc2cccc(C(C)S(=O)(=O)O)c2)c1 (racemic) [Control compound A, potassium (±)-1-[3-[3-[N-(3-methoxyphenyl-N-(N-methyl-N-phenylcarbomoylmethyl)-carbamoylmethyl]ureido]phenylethane sulfonate, reference compound]
		1.6	Cc1ccccc1N(C)C(=O)COc1cccc(N(CC(=O)N(C)c2ccccc2)C(=O)CNC(=O)Nc2cccc(C(C)C(=O)O)c2)c1 (racemic) [Example 79, (±)-2-[3-[3-[N-[3-[N-Methyl-N-(2-methylphenyl)carbamoylmethyloxy]phenyl]-N-(N-methyl-N-phenylcarbamoylmethyl)carbamoylmethyl]ureido]phenyl]propionic acid]
		1	COc1cccc(N(C)C(=O)COc2ccccc2N(CC(=O)N(C)c2ccccc2)C(=O)CNC(=O)Nc2cccc(C(C)C(=O)O)c2)c1 (racemic) [Example 86, (±)-2-[3-[3-[N-[2-[N-(3-Methoxyphenyl)-N-methylcarbamoylmethyloxy]phenyl]-N-(N-methyl-N-phenylcarbamoylmethyl)carbamoylmethyl]ureido]phenyl]propionic acid]
7280	3640	0.5	Cc1cc(C)cc(N(C)C(=O)COc2ccccc2N(CC(=O)N(C)c2ccccc2)C(=O)CNC(=O)Nc2cccc(C(C)C(=O)O)c2)c1 (racemic) [Example 92, Sodium (±)-2-[3-[3-[N-[2-[N-methyl-N-(3,5-dimethylphenyl)carbamoylmethyloxy]phenyl]-N-(N-methyl-N-phenylcarbamoylmethyl)carbamoylmethyl]ureido]phenyl]sodium propionate]
		1.9	Cc1cccc(N(C)C(=O)COc2ccccc2N(CC(=O)N(C)c2ccccc2)C(=O)CNC(=O)Nc2cccc(CC(=O)O)c2)c1 [Example 73, 2-[3-[3-[N-[2-[N-Methyl-N-(3-methylphenyl)carbamoylmethyloxy]phenyl]-N-(N-methyl-N-phenylcarbamoylmethyl)carbamoylmethyl]ureido]phenyl]acetic acid]
3654	3180	0.87	COc1cccc(N(C)C(=O)COc2ccccc2N(CC(=O)N(C)c2ccccc2)C(=O)CNC(=O)Nc2cccc(CC(=O)O)c2)c1 [Example 87, 2-[3-[3-[N-[2-[N-(3-Methoxyphenyl)-N-methylcarbamoylmethyloxy]phenyl]-N-(N-methyl-N-phenylcarbamoylmethyl)carbamoylmethyl]ureido]phenyl]acetic acid]

Source: patent US5919824A, “Aminophenol derivatives” (Daiichi Pharmaceutical Co., Ltd., priority 1995, dated 1999)
